According to patent US9187458B2, “Cyanoquinoline derivatives” (Tianjin Hemay Bio-Tech Co., LTD., priority 2010, dated 2015):
pEC50, pIC50: −log10 of the molar value.

What was measured:
CCRF-CEM/T cells = assay: CCRF-CEM/T Cell Growth Inhibition Test (MTT Assay); type: cell-based; conditions: Homo sapiens, CCRF-CEM/T cells (resistant to paclitaxel), 72 h incubation
Protocol: CCRF-CEM/T Cell Growth Inhibition Test (MTT Assay)
Cell strains: CCRF-CEM/T (human acute lymphocytic cell leukemia cells);
triple lysate solution: 10% SDS, 5% isobutanol, 0.012M HCl.
1. Cells were cultured to exponential phase. The cells were suspension cells;
2. The cells were collected by centrifuge. The resulting cells were resuspended in a complete culture medium to a desired concentration. The cells suspension was implanted into a 96-well cell culture plate by 20000 cells per well. A compound was added in the wellsuch that the final volume of the system was 120 μl. The system was further incubated for 72 h under 5% CO2 at 37° C.
7. 30 μl of serum-free culture solution containing 2.5 mg/ml MTT was added in each well, and incubated for 3 h;
8. 150 μl of triple lysate solution was added in each well and placed to dissolve at the room temperature;
9. OD values were determined at 570 nM.
1. Calculation of Relative Inhibition Ratio The inhibition ratio of a compound on cell growth=(PC−n)/(PC−NC)×100%
IC50: Concentration of a compound where inhibition ratio was 50%. IC50 values were fitted with Origin7.5.

Her2 kinase = biological target: T1, Her2 kinase (Homo sapiens, UniProt P04626); assay: Inhibition Activity Assay on Her2 Enzyme (ELISA, PGT substrate); type: biochemical; conditions: 8 min at 4° C., read-out: Inhibition Activity (EC50) on Her-2
T1 construct: purchased Cell Signaling Tech #7382
Protocol: Inhibition Activity Assay on Her2 Enzyme
1. Her2 kinase, Cell Signaling Tech, #7382, Lot. 2, reserved at −80° C.;
2. PBST: PBS+0.05% (v/v) Tween 20;
3. Confining liquid: 3% of BSA in PBS;
4. HEPEs buffer (2×): 50 mM HEPEs, 20 mM MgCl2, 0.1 mM MnCl2, 0.2 mM Na3VO4, adjusted to pH of 7.4 with NaOH;
5. PGT, Sigma, Cat#P0275): 2 mg/ml of stock solution was prepared by dissolving PBS, reserved at −20° C.
6. ATP: […] of stock solution was prepared by dissolving ddH2O, reserved at −20° C.;
7. Mice anti-phosphorylation tyrosine-HRP: Invitrogen-037720, 0.5 mg/ml, reserved at 4° C.;
8. TMB: Cell Signaling Tech, Cat #7004L;
9. DTT: 2.5 M of stock solution was prepared with ddH2O, reserved at −20° C. Before use, 2×HEPEs buffer was added in the solution to the final concentration of 1.25 mM.
1. 2 mg/ml of PGT was diluted with PBS to 0.2 mg/ml. 60 μl of the resulting solution was added in each well. The elisa plate was placed in a refrigerator at 4° C. and coated overnight;
2. The coating solution was discarded to stop the coating. The plate was washed four times with PBS, and then beaten to dryness;
3. The elisa plate was placed in a refrigerator at 4° C., drained out and stood for 3h.
4. […] of aqueous solution of each compound was diluted with ddH2O to a desirable concentration. Then, the solution was added in the corresponding elisa well by 25 μl/well;
5. 2 nM of ATP solution was diluted with ddH2O to 25 folds and then sufficiently mixed. The resulting solution was separately added in each elisa well by 25 μl per well (25 μl ddH2O was added in the negative control);
6. Her2 kinase was diluted with 2×TKB to 800 folds. The resulting solution was added in the elisa well by 50 μl per well. Then, the enzyme reaction began. Moreover, the elisa plate was immediately placed in a micro-oscillator. The reaction is carried out for 8 min at the temperature of 4° C.;
7. 2% of SDS was added in the elisa well to stop the reaction by adding 100 μl of SDS in each well. The solution was sufficiently mixed on the micro-oscillator to sufficiently mix for about 5 min;
8. The reaction solution was sucked out. The plate was washed four times with PBST. After the plate was beaten to dryness, 0.25 μg/ml of mice anti-phosphorylation tyrosine-HRP which was diluted with confining liquid was added in the plate by 100 μl per well, and then reacted for 30 min at the room temperature.
9. The antibody reaction solution was sucked out. The plate was washed six times with PBST. After the plate was beaten to dryness, TMB peroxidase substrate was added in the plate with 100 μl/well, and then reacted in the dark for 15 min at the room temperature;
10. 100 μl of 2N H2SO4 was added in the solution to stop the chromogenic reaction. After the bubbles were cleansed, the solution was measured in elisa at 450 nm.
OD values were converted in relative inhibition ratios according to following formula: Relative inhibition ratio=[1−(experiment values−NC mean values)/(PC mean values−NC mean values)]×100%

T1 sequence (P04626 676-1255 limits assumed): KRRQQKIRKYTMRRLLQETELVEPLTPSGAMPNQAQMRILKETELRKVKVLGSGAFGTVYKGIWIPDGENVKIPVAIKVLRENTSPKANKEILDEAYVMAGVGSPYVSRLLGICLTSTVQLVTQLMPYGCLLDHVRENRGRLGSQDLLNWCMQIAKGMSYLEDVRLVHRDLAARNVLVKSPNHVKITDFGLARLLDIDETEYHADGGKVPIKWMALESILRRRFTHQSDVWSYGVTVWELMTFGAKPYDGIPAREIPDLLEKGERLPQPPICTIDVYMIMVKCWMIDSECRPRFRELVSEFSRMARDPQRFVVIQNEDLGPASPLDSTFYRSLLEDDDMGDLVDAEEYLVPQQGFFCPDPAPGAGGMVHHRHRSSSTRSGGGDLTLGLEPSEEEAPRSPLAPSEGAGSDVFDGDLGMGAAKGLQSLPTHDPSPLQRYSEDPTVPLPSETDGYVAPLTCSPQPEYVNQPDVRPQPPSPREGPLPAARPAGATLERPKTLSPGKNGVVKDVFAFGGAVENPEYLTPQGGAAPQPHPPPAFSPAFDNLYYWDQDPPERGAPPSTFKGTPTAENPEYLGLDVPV

Row | pIC50 (CCRF-CEM/T cells) | pEC50 (Her2 kinase) | Compound
1 | 5.24 | 6.79 | CN(C)C/C=C/C(=O)Nc1cc2c(Nc3ccc(F)c(Cl)c3)c(C#N)cnc2cc1OC1CCOC1 (stereo not drawn) [Example 4, (E)-N-(4-(3-CHLORO-4-FLUOROPHENYLAMINO)-3-CYANO-7-(TETRAHYDROFURAN-3-YL-OXY)QUINOLIN-6-YL)-4-(DIMETHYLAMINO)-BUT-2-ENAMIDE]
2 | 5.05 | 7.02 | C#Cc1cccc(Nc2c(C#N)cnc3cc(OC4CCOC4)c(NC(=O)/C=C/CN(C)C)cc23)c1 (stereo not drawn) [Example 5, (E)-N-(3-CYANO-4-(3-ETHYNYLPHENYLAMINO)-7-(TETRAHYDROFURAN-3-YL-OXY)QUINOLIN-6-YL)-4-(DIMETHYLAMINO)-BUT-2-ENAMIDE]
3 | – | 6.66 | CN(C)C/C=C/C(=O)Nc1cc2c(Nc3ccc(OCc4cccc(F)c4)c(Cl)c3)c(C#N)cnc2cc1OC1CCOC1 (stereo not drawn) [Example 9, (E)-N-(4-(4-(3-FLUOROBENZYLOXY)-3-CHLOROPHENYLAMINO)-3-CYANO-7-(TETRAHYDROFURAN-3-YL-OXY)QUINOLIN-6-YL)-4-(DIMETHYLAMINO)-BUT-2-ENAMIDE]
4 | – | 6.63 | CN(C)C/C=C/C(=O)Nc1cc2c(Nc3ccc(OCc4ccccn4)c(Cl)c3)c(C#N)cnc2cc1OC1CCOC1 (stereo not drawn) [Example 21, (E)-N-(4-(3-CHLORO-4-(PYRIDIN-2-YL-METHOXY)PHENYLAMINO)-3-CYANO-7-(TETRAHYDROFURAN-3-YL-OXY)QUINOLIN-6-YL)-4-(DIMETHYLAMINO)-BUT-2-ENAMIDE]
5 | 5.25 | 6.61 | CN(C)C/C=C/C(=O)Nc1cc2c(Nc3ccc(OCc4ccccn4)c(Cl)c3)c(C#N)cnc2cc1O[C@H]1CCOC1 [Example 138, (S,E)-N-(4-(3-CHLORO-4-(PYRIDIN-2-YL-METHOXY)PHENYLAMINO)-3-CYANO-7-(TETRAHYDROFURAN-3-YL-OXY)QUINOLIN-6-YL)-4-(DIMETHYLAMINO)-BUT-2-ENAMIDE]
6 | 5.85 | – | CN(C)C/C=C/C(=O)Nc1cc2c(Nc3ccc(OCc4ccccn4)c(Cl)c3)c(C#N)cnc2cc1O[C@@H]1CCOC1 [Example 139, (R,E)-N-(4-(3-CHLORO-4-(PYRIDIN-2-YL-METHOXY)PHENYLAMINO)-3-CYANO-7-(TETRAHYDROFURAN-3-YL-OXY)QUINOLIN-6-YL)-4-(DIMETHYLAMINO)-BUT-2-ENAMIDE]
7 | 5.10 | 6.96 | C#Cc1cccc(Nc2c(C#N)cnc3cc(O[C@H]4CCOC4)c(NC(=O)/C=C/CN(C)C)cc23)c1 [Example 140, (S,E)-N-(3-CYANO-4-(3-ETHYNYLPHENYLAMINO)-7-(TETRAHYDROFURAN-3-YL-OXY)QUINOLIN-6-YL)-4-(DIMETHYLAMINO)-BUT-2-ENAMIDE]
8 | 5.04 | – | C#Cc1cccc(Nc2c(C#N)cnc3cc(O[C@@H]4CCOC4)c(NC(=O)/C=C/CN(C)C)cc23)c1 [Example 141, (R,E)-N-(3-CYANO-4-(3-ETHYNYLPHENYLAMINO)-7-(TETRAHYDROFURAN-3-YL-OXY)QUINOLIN-6-YL)-4-(DIMETHYLAMINO)-BUT-2-ENAMIDE]
9 | 5.18 | – | CN(C)C/C=C/C(=O)Nc1cc2c(Nc3ccc(F)c(Cl)c3)c(C#N)cnc2cc1O[C@H]1CCOC1 [Example 142, (S,E)-N-(4-(3-CHLORO-4-FLUOROPHENYLAMINO)-3-CYANO-7-(TETRAHYDROFURAN-3-YL-OXY)QUINOLIN-6-YL)-4-(DIMETHYLAMINO)-BUT-2-ENAMIDE]
10 | 5.42 | – | CCN(CC)C/C=C/C(=O)Nc1cc2c(Nc3ccc(OCc4ccccn4)c(Cl)c3)c(C#N)cnc2cc1O[C@H]1CCOC1 [Example 150, (S,E)-N-(4-(3-CHLORO-4-(PYRIDIN-2-YL-METHOXY)PHENYLAMINO)-3-CYANO-7-(TETRAHYDROFURAN-3-YL-OXY)QUINOLIN-6-YL)-4-(DIETHYLAMINO)-BUT-2-ENAMIDE]
11 | 5.44 | – | N#Cc1cnc2cc(O[C@H]3CCOC3)c(NC(=O)/C=C/CN3CCCCC3)cc2c1Nc1ccc(OCc2ccccn2)c(Cl)c1 [Example 151, (S,E)-N-(4-(3-CHLORO-4-(PYRIDIN-2-YL-METHOXY)PHENYLAMINO)-3-CYANO-7-(TETRAHYDROFURAN-3-YL-OXY)QUINOLIN-6-YL)-4-(PIPERIDIN-1-YL)-BUT-2-ENAMIDE]
